In patent US6046238A, “Method for treating or preventing the spread of acne vulgaris” (TriStrata, Inc., priority 1999, dated 2000):
Converted amounts (≈) assume the structure as drawn. “Also recorded” adds a separate entry of the source. Where two headings read alike, the source gives them in different places.

Experiments:
[1] = system: Staphylococcus epidermidis; experiment: MIC Agar Dilution Test, Staphylococcus epidermidis; assay type: cell-based; conditions: S. epidermidis
From the text: (§1) The following strains of microorganisms were used in Minimum Inhibitory Concentration (MIC) tests for phenyl 2-acetoxyethanoic acid in this example and for benzoyl peroxide, chlorhexidine gluconate and triclosan in the following examples. In total, five strains were used for S. aureus, five strains were used for S. epidermidis, two strains were used for M. sedentarius, three strains were used for M. luteus, two strains were used for B. epidermis, three strains were used for C. minutissium, one strain was used for S. marcescens, three strains were used for P. aeruginosa, four strains were used for E. coli, and thirty-two strains were used for P. acnes.
(§2) Antimicrobial effects were determined based on MIC Agar Dilution Test utilizing Trypticase Soy Agar II (BBL) incorporation plates with and without 10% intralipid (Kabi Pharmacia Inc.). Initially, phenyl 2-acetoxyethanoic acid was prepared as a 2 mg/ml (0.2%) solution in water. This solution with serial dilution was incorporated into the test agar plates. The MIC test gave similar results when the same species but a different strain was used.
(§3) Under the same test conditions described in Example 1, benzoyl peroxide was prepared as a 2.5 mg/ml (0.25%) solution in water. This solution with serial dilution was incorporated into the test agar plates. Typical test results are shown as follows.
(§4) Under the same test conditions described in Example 1, chlorhexidine gluconate was prepared as a 2 mg/ml (0.2%) solution in water. This solution with serial dilution was incorporated into the test agar plates. Typical test results are shown as follows.
(§5) Under the same test conditions described in Example 1, triclosan was prepared as a 10 mg/ml (1%) solution in water. This solution with serial dilution was incorporated into the test agar plates. Typical test results are shown as follows.
(§6) Ten different species of bacteria were used in Minimum Inhibitory Concentration (MIC) tests. The bacteria include S. aureus, S. epidermidis,M. sedentarius, M. luteus, B. epidermis, C. minutissium, S. marcescens, P. aeruginosa, E. coli, and P. acnes. In addition various sources and strains of these bacteria were also included in the tests, and up to 32 different strains of P. acnes were used.
(§7) The test substance selected from phenyl 2-acetoxyethanoic acid, benzoyl peroxide, chlorhexidine gluconate and triclosan was dissolved in water, and the solution with serial dilution was incorporated into the test agar plates. The plates containing different concentrations of test substance were inoculated with a strain of bacterium. MIC is defined as the lowest concentration of the test substance in the plate in which there is no growth of the microorganism.

[2] = system: Micrococcus luteus; experiment: MIC Agar Dilution Test, Micrococcus luteus; assay type: cell-based; conditions: M. luteus
From the text: as §1, §2, §3, §4, §5, §6, §7

[3] = system: Brevibacterium epidermis; experiment: MIC Agar Dilution Test, Brevibacterium epidermis; assay type: cell-based; conditions: B. epidermis
From the text: as §1, §2, §3, §4, §5, §6, §7

[4] = system: Serratia marcescens; experiment: MIC Agar Dilution Test, Serratia marcescens; assay type: cell-based; conditions: S. marcescens
From the text: as §1, §2, §3, §4, §5, §6, §7

[5] = prophylactic effect in preventing the development of axillary foul odor; assay type: in vivo, human; conditions: Example 5; 0.5% solution, topical; one person; up to 24 hours
Procedure: A typical test for prophylactic effect in preventing the development of axillary foul odor was carried out as follows. A test composition was prepared by dissolving 0.5 g of phenyl 2-acetoxyethanoic acid or diphenyl 2-acetoxyethanoic acid in 70 ml of ethanol and 30 ml of propylene glycol. The control vehicle was prepared by mixing 70 ml of ethanol and 30 ml of propylene glycol. A human subject was instructed to take a shower in the morning using ordinary soap to clean the body surfaces. After the skin was dried, the test composition was topically applied to the left underarm area only. The vehicle control was topically applied to the right underarm area. Both underarm areas were monitored by the subject and at least one other person approximately every 8 hours to determine whether the test composition had any prophylactic effect in preventing the development of underarm foul odor in the left axilla as compared to the vehicle alone on the right control armpit.
Presence or substantial absence of foul odor, detected by smell, was adopted as the criteria for ineffectiveness or effectiveness of the test composition.
A total of seven subjects (four females; three males) participated in several studies. Most of these subjects could not use existing commercial products of antiperspirants or deodorants because of severe irritation after topical application. […]

[6] = topical treatment of nail infections; assay type: in vivo, human; conditions: non-synergistic composition, twice daily
From the text: The participating subjects in the present study were instructed to apply twice daily the composition containing phenyl 2-acetoxyethanoic acid or diphenyl 2-acetoxyethanoic acid with or without clotrimazole as an additional antimicrobial agent.
In order to determine the antimicrobial effect of an aryl 2-acetoxyethanoicacid, a standard test method of Minimum Inhibitory Concentration (MIC) against the growth of 10 bacteria was used. To determine a prophylactic effect against the development of, as well as a topical effect in the treatment of, body foul door, eleven human subjects participated in this study. […] Scientific and test results are overviewed as follows.

[7] = treatment of oral infections; assay type: in vivo, human; conditions: 2% composition diluted to 0.1%; oral rinse twice daily
Procedure: Compositions for treatment of oral infections may contain an aryl 2-acetoxyethanoic acid as the only active ingredient. In this case a phenyl 2-acetoxyethanoic acid or diphenyl 2-acetoxyethanoic acid 2% composition was formulated by dissolving the active ingredient 2 g in ethanol 78 ml and propylene glycol 20 ml. Before use, this composition was diluted to 0.1% with water by mixing one part of the composition with 19 parts of water. The treatment involves oral rinse, wash and gargle by keeping the diluted composition inside the oral cavity for a few minutes, and then spit out. Such procedure may be repeated twice daily for several days until the infection is eradicated usually within 5-7 days.

[8] = topical treatment of folliculitis and perifolliculitis; assay type: in vivo, human; conditions: 0.9%, twice daily; nine patients
Procedure: Nine patients having various degrees of folliculitis and perifolliculitis participated in this study. A test composition containing 0.9% phenyl 2-acetoxyethanoic acid or diphenyl 2-acetoxyethanoic acid was prepared by dissolving 0.9 g compound in 79.1 ml 2-propanol, 15 ml butane-1,3-diol and 5 ml nonoxynol-6. The composition was packaged in one-ounce bottles. The patients were instructed to apply the test composition twice daily on the infected skin lesions and involved areas. Topical applications were continued up to 8 weeks.

[9] = 10% intralipid, read-out: MIC Lipid
[10] = no lipid, read-out: MIC No Lipid

For `CC(=O)OC(C(=O)O)c1ccccc1` (stereo not shown) [phenyl 2-acetoxyethanoic acid], the MIC [1, 9] was 1000 µg/mL (≈ 5.15 mM), the MIC [1, 10] was 1000 µg/mL (≈ 5.15 mM) and the MIC [2, 9] was 1000 µg/mL (≈ 5.15 mM). The MIC [2, 10] was 1000 µg/mL (≈ 5.15 mM), the MIC [3, 9] was 1000 µg/mL (≈ 5.15 mM) and the MIC [3, 10] was 1000 µg/mL (≈ 5.15 mM). For the same compound, the MIC [4, 9] was 1000 µg/mL (≈ 5.15 mM), the MIC [4, 10] was 1000 µg/mL (≈ 5.15 mM) and the “prevention of axillary foul odor (left underarm)” value [5] was “did not produce any detectable odor, even after 24 hours; also recorded: substantially effective in preventing the development of axillary foul odor”. The “disappearance of nail infections” value [6] was “usually disappeared within one to several months”, the “time within which oral infection is usually eradicated” value [7] was 5 to 7 days and the “deeper lesions of papules” value [8] was “eradicated or substantially improved after 4 to 8 weeks of topical applications”. For the same compound, the “superficial folliculitis and perifolliculitis lesions” value [8] was “eradicated or substantially improved after a few days of topical applications”.
